# Assay results taken from US7566712B2, “Biaryl piperazinyl-pyridine analogues” (Neurogen Corporation, priority 2003, dated 2009).
# Target: T1, human capsaicin receptor (Homo sapiens, UniProt Q8NER1)
# T1 construct: pBK-CMV expression construct encoding the full length human capsaicin receptor; expressed in transfected cells
# Test: Calcium mobilization assay, determination of antagonist activity (Example 6)
# Type: cell-based
# Conditions: determined as described in Example 6 (calcium mobilization, antagonist activity); Table II
# In short: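 Antagonism measured as inhibition of capsaicin-evoked (final concentration = EC50, from an 8-point 1 nM–3 μM curve) Fluo-3 calcium signal in stable hVR1-HEK293 cells. Test compounds at 1–5 μM final, 0.5–6 h dark preincubation at room temperature. IC50 = concentration giving 50% reduction versus agonist-only response.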
# T1 sequence (Q8NER1 whole entry): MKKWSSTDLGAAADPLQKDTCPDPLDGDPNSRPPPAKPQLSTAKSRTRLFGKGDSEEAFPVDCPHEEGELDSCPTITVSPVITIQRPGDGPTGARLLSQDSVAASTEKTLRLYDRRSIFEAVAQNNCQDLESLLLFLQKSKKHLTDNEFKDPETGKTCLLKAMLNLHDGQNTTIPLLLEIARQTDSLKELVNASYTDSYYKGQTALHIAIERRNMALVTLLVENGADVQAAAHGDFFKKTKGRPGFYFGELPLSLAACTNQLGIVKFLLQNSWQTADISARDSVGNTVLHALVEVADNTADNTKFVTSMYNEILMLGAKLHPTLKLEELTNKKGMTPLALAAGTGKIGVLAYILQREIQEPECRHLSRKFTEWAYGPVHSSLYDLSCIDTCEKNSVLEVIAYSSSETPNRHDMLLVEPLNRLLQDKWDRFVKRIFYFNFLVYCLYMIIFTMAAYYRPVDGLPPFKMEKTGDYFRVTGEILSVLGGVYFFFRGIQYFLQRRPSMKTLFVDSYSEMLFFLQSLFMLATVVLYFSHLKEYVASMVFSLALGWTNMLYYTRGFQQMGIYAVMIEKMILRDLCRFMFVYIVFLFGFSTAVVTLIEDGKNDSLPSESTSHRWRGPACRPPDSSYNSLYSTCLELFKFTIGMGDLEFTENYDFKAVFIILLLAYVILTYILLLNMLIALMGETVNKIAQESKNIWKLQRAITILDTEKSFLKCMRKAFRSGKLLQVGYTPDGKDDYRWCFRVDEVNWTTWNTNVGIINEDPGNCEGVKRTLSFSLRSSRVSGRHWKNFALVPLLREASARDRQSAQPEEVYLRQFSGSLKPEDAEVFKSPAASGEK
row,Structure (SMILES),IC50 [nM]
1,"CN(C)C(=O)[C@@H]1CCCN1c1nc(-c2ccc(F)c(Cl)c2)cc(N2CCN(c3ncccc3C(F)(F)F)CC2)n1 [Example 711, 1-(4-(3-chloro-4-fluorophenyl)-6-{4-[3-(trifluoromethyl)pyridin-2-yl]piperazin-1-yl}pyrimidin-2-yl)-N,N-dimethyl-L-prolinamide]",≤ 1000
2,"CN(C)C[C@@H]1CCCN1c1nc(-c2ccc(F)c(Cl)c2)cc(N2CCN(c3ncccc3C(F)(F)F)CC2)n1 [Example 712, 1-[(2S)-1-(4-(3-chloro-4-fluorophenyl)-6-{4-[3-(trifluoromethyl)pyridin-2-yl]piperazin-1-yl}pyrimidin-2-yl)pyrrolidin-2-yl]-N,N-dimethylmethanamine]",≤ 1000
3,"Fc1ccc(-c2cc(N3CCN(c4ncccc4Cl)CC3)nc(N3CCCC3)n2)cc1Cl [Example 713, 4-(3-chloro-4-fluorophenyl)-6-[4-(3-chloropyridin-2-yl)piperazin-1-yl]-2-pyrrolidin-1-ylpyrimidine]",≤ 1000
4,"CC1CCCN1c1nc(-c2ccc(F)c(Cl)c2)cc(N2CCN(c3ncccc3Cl)CC2)n1 (stereo not drawn) [Example 714, 4-(3-chloro-4-fluorophenyl)-6-[4-(3-chloropyridin-2-yl)piperazin-1-yl]2-(2-methylpyrrolidin-1-yl)pyrimidine]",≤ 1000
5,"Fc1ccc(-c2cc(N3CCN(c4ncccc4Cl)CC3)nc(N3CCCCC3)n2)cc1Cl [Example 715, 4-(3-chloro-4-fluorophenyl)-6-[4-(3-chloropyridin-2-yl)piperazin-1-yl]-2-piperidin-1-ylpyrimidine]",≤ 1000
6,"Cc1cc(-c2cc(N3CCN(c4ncccc4C(F)(F)F)CC3)nc(N3CCN(C(C)C)CC3)n2)ccc1F [Example 716, 4-(4-fluoro-3-methylphenyl)-2-(4-isopropylpiperazin-1-yl)-6-{4-[3-(trifluoromethyl)pyridin-2-yl]piperazin-1-yl}pyrimidine]",≤ 1000
7,"Cc1cc(-c2cc(N3CCN(c4ncccc4Cl)CC3)nc(N3CCCCC3)n2)ccc1F [Example 717, 4-[4-(3-chloropyridin-2-yl)piperazin-1-yl]-6-(4-fluoro-3-methylphenyl)-2-piperidin-1-ylpyrimidine]",≤ 1000
8,"Cc1cc(-c2cc(N3CCN(c4ncccc4Cl)C[C@H]3C)nc(N3CCCC3)n2)ccc1F [Example 718, 4-[(2R)-4-(3-chloropyridin-2-yl)-2-methylpiperazin-1-yl]-6-(4-fluoro-3-methylphenyl)-2-pyrrolidin-1-ylpyrimidine]",≤ 1000
9,"Cc1cc(-c2cc(N3CCN(c4ncccc4Cl)C[C@H]3C)nc(N3CCCC3C)n2)ccc1F (stereo partly drawn) [Example 719, 4-[(2R)-4-(3-chloropyridin-2-yl)-2-methylpiperazin-1-yl]-6-(4-fluoro-3-methylphenyl)-2-(2-methylpyrrolidin-1-yl)pyrimidine]",≤ 1000
10,"Cc1cc(-c2cc(N3CCN(c4ncccc4Cl)C[C@H]3C)nc(N3CCCCC3)n2)ccc1F [Example 720, 4-[(2R)-4-(3-chloropyridin-2-yl)-2-methylpiperazin-1-yl]-6-(4-fluoro-3-methylphenyl)-2-piperidin-1-ylpyrimidine]",≤ 1000

# Second part, the molecule after the results:
row,IC50 [nM],Structure (SMILES)
1,≤ 1000,"CCN(CC)c1nc(-c2ccc(F)c(C)c2)cc(N2CCN(c3ncccc3Cl)CC2)n1 [Example 721, 4-[4-(3-chloropyridin-2-yl)piperazin-1-yl]-N,N-diethyl-6-(4-fluoro-3-methylphenyl)pyrimidin-2-amine]"
2,≤ 1000,"C[C@@H]1CN(c2ncccc2Cl)CCN1c1cc(-c2ccc(F)c(Cl)c2)nc(SCc2ccccc2)n1 [Example 722, 2-(benzylthio)-4-(3-chloro-4-fluorophenyl)-6-[(2R)-4-(3-chloropyridin-2-yl)-2-methylpiperazin-1-yl]pyrimidine]"
3,≤ 1000,"C[C@@H]1CN(c2ncccc2Cl)CCN1c1cc(-c2ccc(F)c(Cl)c2)nc(S(=O)(=O)Cc2ccccc2)n1 [Example 723, 2-(benzylsulfonyl)-4-(3-chloro-4-fluorophenyl)-6-[(2R)-4-(3-chloropyridin-2-yl)-2-methylpiperazin-1-yl]pyrimidine]"
4,≤ 1000,"CCN(CC)c1nc(-c2ccc(F)c(Cl)c2)cc(N2CCN(c3ncccc3Cl)CC2)n1 [Example 724, 4-(3-chloro-4-fluorophenyl)-6-[4-(3-chloropyridin-2-yl)piperazin-1-yl]-N,N-diethylpyrimidin-2-amine]"
5,≤ 1000,"CC(C)N(C)c1nc(-c2ccc(F)c(Cl)c2)cc(N2CCN(c3ncccc3Cl)CC2)n1 [Example 725, 4-(3-chloro-4-fluorophenyl)-6-[4-(3-chloropyridin-2-yl)piperazin-1-yl]-N-isopropyl-N-methylpyrimidin-2-amine]"
6,≤ 1000,COC[C@@H]1CCCN1c1nc(-c2ccc(F)c(C)c2)cc(N2CCN(c3ncccc3Cl)CC2)n1 [Example 726]
7,≤ 1000,"COC[C@H]1CCCN1c1nc(-c2ccc(F)c(C)c2)cc(N2CCN(c3ncccc3Cl)C[C@H]2C)n1 [Example 728, 4-[(2R)-4-(3-chloropyridin-2-yl)-2-methylpiperazin-1-yl]-6-(4-fluoro-3-methylphenyl)-2-[(2R)-2-(methoxymethyl)pyrrolidin-1-yl]pyrimidine]"
8,≤ 1000,"COC[C@@H]1CCCN1c1nc(-c2ccc(F)c(C)c2)cc(N2CCN(c3ncccc3Cl)C[C@H]2C)n1 [Example 729, 4-[(2R)-4-(3-chloropyridin-2-yl)-2-methylpiperazin-1-yl]-6-(4-fluoro-3-methylphenyl)-2-[(2S)-2-(methoxymethyl)pyrrolidin-1-yl]pyrimidine]"
9,≤ 1000,"Cc1cc(-c2cc(N3CCN(c4ncccc4Cl)CC3)nc(N(C)C(C)C)n2)ccc1F [Example 730, 4-[4-(3-chloropyridin-2-yl)piperazin-1-yl]-6-(4-fluoro-3-methylphenyl)-N-isopropyl-N-methylpyrimidin-2-amine]"
10,≤ 1000,"C[C@@H]1CN(c2ncccc2Cl)CCN1c1cc(-c2ccc(F)c(Cl)c2)nc(N2CCCC2)n1 [Example 731, 4-(3-chloro-4-fluorophenyl)-6-[(2R)-4-(3-chloropyridin-2-yl)-2-methylpiperazin-1-yl]-2-pyrrolidin-1-ylpyrimidine]"
11,≤ 1000,"CC1CCCN1c1nc(-c2ccc(F)c(Cl)c2)cc(N2CCN(c3ncccc3Cl)C[C@H]2C)n1 (stereo partly drawn) [Example 732, 4-(3-chloro-4-fluorophenyl)-6-[(2R)-4-(3-chloropyridin-2-yl)-2-methylpiperazin-1-yl]-2-(2-methylpyrrolidin-1-yl)pyrimidine]"
12,≤ 1000,"COC[C@H]1CCCN1c1nc(-c2ccc(F)c(Cl)c2)cc(N2CCN(c3ncccc3Cl)C[C@H]2C)n1 [Example 733, 4-(3-chloro-4-fluorophenyl)-6-[(2R)-4-(3-chloropyridin-2-yl)-2-methylpiperazin-1-yl]-2-[(2R)-2-(methoxymethyl)pyrrolidin-1-yl]pyrimidine]"
13,≤ 1000,"C[C@@H]1CN(c2ncccc2Cl)CCN1c1cc(-c2ccc(F)c(Cl)c2)nc(N2CCCCC2)n1 [Example 734, 4-(3-chloro-4-fluorophenyl)-6-[(2R)-4-(3-chloropyridin-2-yl)-2-methylpiperazin-1-yl]-2-piperidin-1-ylpyrimidine]"
14,≤ 1000,"COC[C@@H]1CCCN1c1nc(-c2ccc(F)c(Cl)c2)cc(N2CCN(c3ncccc3Cl)C[C@H]2C)n1 [Example 735, 4-(3-chloro-4-fluorophenyl)-6-[(2R)-4-(3-chloropyridin-2-yl)-2-methylpiperazin-1-yl]-2-[(2S)-2-(methoxymethyl)pyrrolidin-1-yl]pyrimidine]"
